Usually aqueous solubility stands for the dissolved amount per volume that the medium holds. A higher aqueous solubility goes with a readily soluble substance.

For the series the following is noted: for aqueous solubility: pH 6.8.

Converted amounts (≈) assume the structure as drawn. Where only a bound is given, the exact number is not on record here.

For `CC(C)CN(c1ncnc2c1cnn2C)C1CC1`, the MDR1-MDCK efflux ratio worked out at 0.731; the intrinsic clearance, human liver microsomes is 50.5 mL/min/kg; the intrinsic clearance, rat liver microsomes was 345 mL/min/kg; the aqueous solubility came to 29.6 µg/mL (≈ 121 µM).

Consider `CON(C)C(=O)c1cc2ccc(C(C)(C)C)cc2[nH]1`, for which the MDR1-MDCK efflux ratio came to 0.438; the intrinsic clearance, human liver microsomes stood at 55 mL/min/kg; the intrinsic clearance, rat liver microsomes was determined as 344 mL/min/kg; the aqueous solubility amounted to 1.02 µg/mL (≈ 3.92 µM).

Turning to `CCc1cc2c(OCC(=O)N3CCCC3)ncnc2s1`, the intrinsic clearance, human liver microsomes worked out at 25.8 mL/min/kg and the intrinsic clearance, rat liver microsomes worked out at 597 mL/min/kg.

Take `CC(=O)Nc1sc2c(c1-c1nc3ccccc3s1)CCN(C(C)C)C2`: the intrinsic clearance, human liver microsomes came out at 34.8 mL/min/kg and the intrinsic clearance, rat liver microsomes amounted to 231 mL/min/kg.

The compound `CCONC(=O)Cc1coc2c(C)c(C)ccc12` came in with an intrinsic clearance, human liver microsomes of 89.7 mL/min/kg; an intrinsic clearance, rat liver microsomes of 1060 mL/min/kg; an aqueous solubility of 34.2 µg/mL (≈ 138 µM).

Turning to `CCCn1ncc2[nH]c(C3CCCCC3)nc21`, the MDR1-MDCK efflux ratio is 1.26; the intrinsic clearance, human liver microsomes came out at 19.9 mL/min/kg; the intrinsic clearance, rat liver microsomes is 83.7 mL/min/kg; the aqueous solubility was 22.4 µg/mL (≈ 96.5 µM).

Consider `COc1cccc(C)c1C(=O)N(C)CCCn1cccn1`, for which the MDR1-MDCK efflux ratio was determined as 3.55; the intrinsic clearance, human liver microsomes came out at 38 mL/min/kg; the intrinsic clearance, rat liver microsomes came out at 500 mL/min/kg.

`COc1ccc(C)cc1-c1cccnc1O`: the MDR1-MDCK efflux ratio was 1.08; the intrinsic clearance, human liver microsomes turned out to be 5.37 mL/min/kg; the intrinsic clearance, rat liver microsomes was 26.5 mL/min/kg; the aqueous solubility was 32.8 µg/mL (≈ 152 µM).

In turn, `COc1ccccc1-c1nc(-c2ccc(NC(C)=O)cc2)c(C)s1` registered an aqueous solubility of 0.73 µg/mL (≈ 2.16 µM).

As for `Nc1nc(CN2CCN(c3ccc(F)cc3)CC2)cs1`, the MDR1-MDCK efflux ratio turned out to be 0.597; the intrinsic clearance, human liver microsomes was at most 4.74 mL/min/kg; the intrinsic clearance, rat liver microsomes was determined as 49.7 mL/min/kg; the aqueous solubility was found to be 57 µg/mL (≈ 195 µM).

Turning to `COc1cncc(-c2ccnc3[nH]ccc23)c1`, the MDR1-MDCK efflux ratio is 0.671; the intrinsic clearance, human liver microsomes amounted to 67.1 mL/min/kg; the intrinsic clearance, rat liver microsomes is 105 mL/min/kg; the aqueous solubility is 24 µg/mL (≈ 107 µM).

Take `Cc1cc(NC(=O)C2CCOCC2)sn1`: the MDR1-MDCK efflux ratio was 0.91; the intrinsic clearance, human liver microsomes is at most 4.74 mL/min/kg; the intrinsic clearance, rat liver microsomes was at most 10.7 mL/min/kg; the aqueous solubility came to 56.5 µg/mL (≈ 250 µM).

For `O=c1c2c(nc3ccccn13)CCN(S(=O)(=O)C1CCCCC1)C2`, the MDR1-MDCK efflux ratio was 1.18; the intrinsic clearance, human liver microsomes is 19.9 mL/min/kg; the intrinsic clearance, rat liver microsomes stood at 1100 mL/min/kg; the aqueous solubility was 33.2 µg/mL (≈ 95.7 µM).

`O=[N+]([O-])c1ccc(S(=O)(=O)Nc2cccc(-c3nc4ccccc4[nH]3)c2)cc1` registered an intrinsic clearance, human liver microsomes of 21.1 mL/min/kg and an intrinsic clearance, rat liver microsomes of 993 mL/min/kg.

In turn, `COc1ccc(-c2ccccc2)c(NS(=O)(=O)c2cc(O)c(Cl)cc2Cl)c1` displayed an aqueous solubility of 27.6 µg/mL (≈ 65 µM).

For the compound `COc1cc(CN(C)C(=O)Nc2cccc(C)c2C)ccc1O`, the intrinsic clearance, human liver microsomes worked out at 15.5 mL/min/kg; the intrinsic clearance, rat liver microsomes is 137 mL/min/kg; the aqueous solubility came out at 51.8 µg/mL (≈ 165 µM).

Regarding `O=C(Nc1nc2ccccc2[nH]1)c1ccc(-c2ccccc2)cc1`, the aqueous solubility stood at 0.5 µg/mL (≈ 1.6 µM).

`N#Cc1cnn(-c2ccc(F)cc2)c1N` yielded an aqueous solubility of 29.2 µg/mL (≈ 144 µM). Compared with the last compound, the aqueous solubility is about 58-fold higher.

`COCC(=O)NC1(C#Cc2ccc(NC(=O)C3CC3)nc2)CCCCC1` showed an intrinsic clearance, human liver microsomes of 16.7 mL/min/kg and an intrinsic clearance, rat liver microsomes of 153 mL/min/kg.

The compound `Cn1c(=O)n(-c2ccc(C(C)(C)C#N)cc2)c2c3cc(-c4cnc5ccccc5c4)ccc3ncc21` displayed an intrinsic clearance, human liver microsomes of 67.3 mL/min/kg and an intrinsic clearance, rat liver microsomes of 91.3 mL/min/kg.

For the compound `CS(=O)(=O)Cc1cc(-c2ccccc2)on1`, the aqueous solubility worked out at 31.3 µg/mL (≈ 132 µM).

Turning to `Cc1n[nH]c(-c2c(C)c3cc(F)ccc3n2C)n1`, the MDR1-MDCK efflux ratio came to 0.509; the intrinsic clearance, human liver microsomes came out at 88.2 mL/min/kg; the intrinsic clearance, rat liver microsomes amounted to 316 mL/min/kg; the aqueous solubility is 23.5 µg/mL (≈ 96.2 µM).

On to `c1ccc2[nH]c(SCc3cn4ccccc4n3)nc2c1`, for which the intrinsic clearance, human liver microsomes came to 86.2 mL/min/kg; the intrinsic clearance, rat liver microsomes stood at 462 mL/min/kg; the aqueous solubility came to 44.9 µg/mL (≈ 160 µM).

With `CC(C)NC(=O)c1cn(-c2ccccc2)nc1-c1ccccc1`, the MDR1-MDCK efflux ratio is 0.459 and the aqueous solubility worked out at 0.22 µg/mL (≈ 0.72 µM).

On to `CCn1ncnc1-c1[nH]cnc1-c1ccccc1`, for which the MDR1-MDCK efflux ratio stood at 2.19; the intrinsic clearance, human liver microsomes is at most 4.74 mL/min/kg; the intrinsic clearance, rat liver microsomes is 48 mL/min/kg; the aqueous solubility is 23 µg/mL (≈ 96.2 µM).

Turning to `CCn1cnnc1C1CCCN(c2ncnc3sc(-c4ccccc4)cc23)C1` (stereo not drawn), the aqueous solubility was 34.8 µg/mL (≈ 89 µM).

As for `CN(c1ncnc2c1cnn2CCO)C1CCCCC1`, the MDR1-MDCK efflux ratio amounted to 0.672; the intrinsic clearance, human liver microsomes is at most 4.74 mL/min/kg; the intrinsic clearance, rat liver microsomes came to 77.5 mL/min/kg; the aqueous solubility turned out to be 44.7 µg/mL (≈ 162 µM).

Turning to `COc1ccc(CN(C)C(=O)Nc2ccccc2)cc1F`, the MDR1-MDCK efflux ratio turned out to be 0.669; the intrinsic clearance, human liver microsomes came out at 18.2 mL/min/kg; the intrinsic clearance, rat liver microsomes was determined as 644 mL/min/kg; the aqueous solubility was found to be 45.9 µg/mL (≈ 159 µM).

Consider `CC(C)c1cnn2c(NCc3ccccc3)cc(NCCCCCCN)nc12`, for which the MDR1-MDCK efflux ratio was found to be 41.3; the intrinsic clearance, human liver microsomes stood at 7.76 mL/min/kg; the intrinsic clearance, rat liver microsomes came to 210 mL/min/kg; the aqueous solubility amounted to 50 µg/mL (≈ 131 µM).

Turning to `Cc1nc(-c2ccccc2)c(C(=O)Nc2ccc(Cl)c(C(F)(F)F)c2)s1`, the MDR1-MDCK efflux ratio amounted to 0.723 and the aqueous solubility was found to be 0.42 µg/mL (≈ 1.06 µM).

In the case of `CC(C)(C)C[C@@H]1COCc2nc(OCc3ccccn3)cc(=O)n21`, the aqueous solubility was found to be 62.1 µg/mL (≈ 189 µM).

With `O=C(/C=C\n1cnc(-c2cc(C(F)(F)F)cc(C(F)(F)F)c2)n1)NNc1ccccn1`, the MDR1-MDCK efflux ratio stood at 1.08; the intrinsic clearance, human liver microsomes turned out to be 13.9 mL/min/kg; the intrinsic clearance, rat liver microsomes was 52.4 mL/min/kg.

For the compound `O=C(CC(=O)N1CCCC1)N1CCCC1`, the MDR1-MDCK efflux ratio came out at 2.82; the intrinsic clearance, human liver microsomes was at most 4.74 mL/min/kg; the intrinsic clearance, rat liver microsomes is at most 10.7 mL/min/kg; the aqueous solubility is 30.7 µg/mL (≈ 146 µM).

Compound `Cc1ccc(C)n1-c1ccc(CNS(C)(=O)=O)cc1` displayed an aqueous solubility of 24.2 µg/mL (≈ 86.9 µM).

Consider `COc1ccccc1-c1cc(C(C)(C)C)nc(-c2ncccn2)n1`, for which the MDR1-MDCK efflux ratio stood at 1.98; the intrinsic clearance, human liver microsomes was 22.7 mL/min/kg; the intrinsic clearance, rat liver microsomes worked out at 169 mL/min/kg.

Turning to `CCSCCC(=O)NCCn1nc(C)c(CC)c1C`, the MDR1-MDCK efflux ratio was found to be 2.49; the intrinsic clearance, human liver microsomes stood at 146 mL/min/kg; the intrinsic clearance, rat liver microsomes was 1540 mL/min/kg.

For the compound `Cn1cc(-c2ccnc(/C=C/c3ccc(F)cc3Br)n2)cn1`, the MDR1-MDCK efflux ratio was 0.658 and the aqueous solubility amounted to 0.68 µg/mL (≈ 1.89 µM).

As to `CCOc1ccc2[nH]c(C(=O)N3CC[C@@](O)(CC(C)C)[C@@H](Oc4ccc(F)cc4)C3)c(C)c2c1`, the MDR1-MDCK efflux ratio was 6.74; the intrinsic clearance, human liver microsomes came out at 109 mL/min/kg; the intrinsic clearance, rat liver microsomes was 943 mL/min/kg.

As to `Cc1ccc(CCNC(=O)c2ccncc2)o1`, the MDR1-MDCK efflux ratio stood at 0.705; the intrinsic clearance, human liver microsomes was at most 4.74 mL/min/kg; the intrinsic clearance, rat liver microsomes stood at 52.3 mL/min/kg; the aqueous solubility was found to be 29.3 µg/mL (≈ 127 µM).

Turning to `COc1ccc(CNC(=O)c2cc(-c3cncc(C)c3)ncc2-c2nccs2)nc1OC`, the MDR1-MDCK efflux ratio amounted to 9.82; the intrinsic clearance, human liver microsomes was found to be 17.7 mL/min/kg; the intrinsic clearance, rat liver microsomes was found to be 125 mL/min/kg; the aqueous solubility came out at 9.86 µg/mL (≈ 22 µM).

As for `Cc1ccc(Oc2ccc(Cl)cc2NC(=O)CN(C)CC(=O)N(C)C)cc1`, the MDR1-MDCK efflux ratio stood at 1.61; the fraction unbound, human plasma stood at 0.00885; the intrinsic clearance, human liver microsomes was 1050 mL/min/kg; the intrinsic clearance, rat liver microsomes stood at 2420 mL/min/kg.

In the case of `Cn1cnnc1NC(=O)c1cnn2c1CCCC2`, the MDR1-MDCK efflux ratio amounted to 3.95; the intrinsic clearance, human liver microsomes was at most 4.74 mL/min/kg; the intrinsic clearance, rat liver microsomes is at most 10.7 mL/min/kg.

With `NC(=O)C1(Cc2ccc(-c3ccncc3)cc2)CCN(C(=O)Cc2cccc(F)c2)CC1`, the fraction unbound, human plasma was found to be 0.102; the fraction unbound, rat plasma stood at 0.114; the aqueous solubility turned out to be 63 µg/mL (≈ 146 µM).

As to `O=C(Nc1ccccc1)c1c([O-])n(-c2ccccc2)n[n+]1Cc1ccccc1`, the MDR1-MDCK efflux ratio was found to be 0.868 and the aqueous solubility amounted to 0.2 µg/mL (≈ 0.54 µM).

Regarding `COc1cccc(C(=O)N(C)CC(F)(F)F)c1OCCCN`, the MDR1-MDCK efflux ratio worked out at 30.1; the intrinsic clearance, human liver microsomes is at most 4.74 mL/min/kg; the intrinsic clearance, rat liver microsomes worked out at 82.1 mL/min/kg.

For the compound `CCc1cc2c(=O)[nH]c(-c3ccccn3)nc2s1`, the aqueous solubility amounted to 49 µg/mL (≈ 190 µM).

As for `Fc1ccc2oc(Cn3nnc(-c4ccsc4)n3)nc2c1`, the aqueous solubility was determined as 30.2 µg/mL (≈ 100 µM). Compared with the last compound, the aqueous solubility is about 1.6-fold lower.

For `CS(=O)(=O)N(CC(=O)Nc1ccccc1C(=O)NCc1ccco1)c1ccc(F)cc1`, the MDR1-MDCK efflux ratio amounted to 9.61; the intrinsic clearance, human liver microsomes stood at 131 mL/min/kg; the intrinsic clearance, rat liver microsomes came out at 1110 mL/min/kg; the aqueous solubility was found to be 35.1 µg/mL (≈ 78.9 µM).

For `CCCn1ccnc1CNc1nc2c(s1)c(C)nn2C`, the MDR1-MDCK efflux ratio stood at 8.95; the intrinsic clearance, human liver microsomes turned out to be 6.75 mL/min/kg; the intrinsic clearance, rat liver microsomes was determined as 129 mL/min/kg; the aqueous solubility was 31 µg/mL (≈ 107 µM).

Compound `N#CCc1ccc(OCc2ccncc2)cc1` yielded an intrinsic clearance, human liver microsomes of 53.3 mL/min/kg and an intrinsic clearance, rat liver microsomes of 373 mL/min/kg.

As to `COCC1(c2nc(-c3ccncc3)nn2Cc2cccc(Cl)c2)CC1`, the MDR1-MDCK efflux ratio came out at 0.731; the intrinsic clearance, human liver microsomes amounted to 341 mL/min/kg; the intrinsic clearance, rat liver microsomes stood at 1420 mL/min/kg; the aqueous solubility came out at 28 µg/mL (≈ 79 µM).

Regarding `COc1ccc(Nc2c(C#N)cnc3cc(OC)c(OC)cc23)cc1Cl`, the MDR1-MDCK efflux ratio turned out to be 3.24; the fraction unbound, human plasma stood at 0.00925; the fraction unbound, rat plasma amounted to 0.0131; the intrinsic clearance, human liver microsomes worked out at 53.1 mL/min/kg. Also, the intrinsic clearance, rat liver microsomes came to 574 mL/min/kg.

These data come from the Biogen ADME set (Fang et al. 2023).
